Among the data in patent US11547697B2, “Heterocyclic compounds and uses thereof” (MILLENNIUM PHARMACEUTICALS, INC., priority 2009, dated 2023) are IC50 values, retold here.

In general, IC50 refers to the concentration that gives 50% inhibition.

Assay type in all cases: biochemical
In one test the target is p110α/p85α (Homo sapiens (Human), UniProt P42336). Nature of the test: PI 3-Kinase (human) HTRF assay, p110α/p85α. Particulars: read-out: PI3K α IC50. A general note: In TR-FRET formats the signal depends on donor and acceptor labels being close together.
The target in a further test is p110β/p85α (Homo sapiens (Human), UniProt P42338). The test is described as follows: PI 3-Kinase (human) HTRF assay, p110β/p85α. Particulars: read-out: PI3K β IC50.
The target in a further test is p110δ/p85α (Homo sapiens (Human), UniProt O00329). The test is described as follows: PI 3-Kinase (human) HTRF assay, p110δ/p85α. The following applies: read-out: PI3K δ IC50.
The target in another test is p110γ (Homo sapiens (Human), UniProt P48736). The test is described as follows: PI 3-Kinase (human) HTRF assay, p110γ. Particulars: read-out: PI3K γ IC50.
p110γ, sequence (P48736 whole entry): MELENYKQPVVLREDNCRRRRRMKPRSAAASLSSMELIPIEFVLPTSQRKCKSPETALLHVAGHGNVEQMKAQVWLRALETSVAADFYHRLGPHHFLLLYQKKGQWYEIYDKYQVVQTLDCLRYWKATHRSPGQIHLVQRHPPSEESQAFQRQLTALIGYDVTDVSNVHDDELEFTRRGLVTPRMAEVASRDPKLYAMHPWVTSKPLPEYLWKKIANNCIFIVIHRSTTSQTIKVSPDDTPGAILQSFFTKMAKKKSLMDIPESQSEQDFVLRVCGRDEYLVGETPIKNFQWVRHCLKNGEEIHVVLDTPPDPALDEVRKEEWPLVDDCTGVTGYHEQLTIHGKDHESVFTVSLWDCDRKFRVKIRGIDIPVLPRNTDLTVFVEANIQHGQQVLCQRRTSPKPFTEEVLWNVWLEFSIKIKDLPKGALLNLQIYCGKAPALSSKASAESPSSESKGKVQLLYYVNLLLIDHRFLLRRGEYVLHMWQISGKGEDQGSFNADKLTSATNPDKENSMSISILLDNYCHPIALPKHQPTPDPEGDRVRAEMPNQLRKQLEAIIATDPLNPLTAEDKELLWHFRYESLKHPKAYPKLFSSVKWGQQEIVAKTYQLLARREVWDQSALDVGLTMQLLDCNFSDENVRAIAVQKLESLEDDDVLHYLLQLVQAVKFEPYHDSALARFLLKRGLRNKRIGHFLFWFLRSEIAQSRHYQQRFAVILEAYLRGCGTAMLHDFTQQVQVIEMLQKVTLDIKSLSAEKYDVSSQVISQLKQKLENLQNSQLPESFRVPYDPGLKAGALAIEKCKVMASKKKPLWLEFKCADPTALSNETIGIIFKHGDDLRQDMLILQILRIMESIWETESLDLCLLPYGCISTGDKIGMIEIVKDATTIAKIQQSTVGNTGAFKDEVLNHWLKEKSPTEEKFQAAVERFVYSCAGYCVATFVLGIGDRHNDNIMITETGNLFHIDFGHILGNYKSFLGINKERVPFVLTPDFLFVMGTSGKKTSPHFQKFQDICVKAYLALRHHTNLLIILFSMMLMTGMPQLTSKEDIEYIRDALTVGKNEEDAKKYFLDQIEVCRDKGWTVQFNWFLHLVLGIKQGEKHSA

p110β/p85α, sequence (P42338 whole entry): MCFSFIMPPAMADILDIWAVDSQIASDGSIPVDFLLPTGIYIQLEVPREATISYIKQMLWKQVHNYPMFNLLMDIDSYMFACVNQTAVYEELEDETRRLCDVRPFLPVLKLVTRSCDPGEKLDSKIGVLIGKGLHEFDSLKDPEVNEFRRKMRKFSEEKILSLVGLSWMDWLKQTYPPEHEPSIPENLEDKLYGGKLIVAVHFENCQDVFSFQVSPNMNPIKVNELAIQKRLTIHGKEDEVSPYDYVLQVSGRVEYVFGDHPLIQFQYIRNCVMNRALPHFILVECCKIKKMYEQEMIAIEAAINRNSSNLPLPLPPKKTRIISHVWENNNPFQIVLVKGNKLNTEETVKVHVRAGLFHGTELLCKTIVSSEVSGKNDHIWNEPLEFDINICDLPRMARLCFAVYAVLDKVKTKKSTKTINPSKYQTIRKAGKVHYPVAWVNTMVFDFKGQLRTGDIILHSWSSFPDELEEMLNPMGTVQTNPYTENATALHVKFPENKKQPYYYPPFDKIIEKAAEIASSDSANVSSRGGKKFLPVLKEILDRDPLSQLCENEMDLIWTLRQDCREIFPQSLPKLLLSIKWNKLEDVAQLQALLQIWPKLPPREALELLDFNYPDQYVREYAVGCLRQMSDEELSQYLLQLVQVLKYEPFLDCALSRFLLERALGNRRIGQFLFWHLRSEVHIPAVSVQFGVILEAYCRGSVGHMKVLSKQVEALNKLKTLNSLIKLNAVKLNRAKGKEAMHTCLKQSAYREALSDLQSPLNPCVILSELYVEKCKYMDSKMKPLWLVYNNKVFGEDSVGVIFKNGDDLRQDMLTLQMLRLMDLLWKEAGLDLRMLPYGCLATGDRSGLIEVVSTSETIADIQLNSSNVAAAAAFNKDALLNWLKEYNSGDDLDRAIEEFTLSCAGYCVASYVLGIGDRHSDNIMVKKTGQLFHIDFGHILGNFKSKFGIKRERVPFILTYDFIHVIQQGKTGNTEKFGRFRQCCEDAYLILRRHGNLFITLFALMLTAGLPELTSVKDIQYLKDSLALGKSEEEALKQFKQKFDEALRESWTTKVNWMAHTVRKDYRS
p110β/p85α, sequence (P27986 whole entry partner): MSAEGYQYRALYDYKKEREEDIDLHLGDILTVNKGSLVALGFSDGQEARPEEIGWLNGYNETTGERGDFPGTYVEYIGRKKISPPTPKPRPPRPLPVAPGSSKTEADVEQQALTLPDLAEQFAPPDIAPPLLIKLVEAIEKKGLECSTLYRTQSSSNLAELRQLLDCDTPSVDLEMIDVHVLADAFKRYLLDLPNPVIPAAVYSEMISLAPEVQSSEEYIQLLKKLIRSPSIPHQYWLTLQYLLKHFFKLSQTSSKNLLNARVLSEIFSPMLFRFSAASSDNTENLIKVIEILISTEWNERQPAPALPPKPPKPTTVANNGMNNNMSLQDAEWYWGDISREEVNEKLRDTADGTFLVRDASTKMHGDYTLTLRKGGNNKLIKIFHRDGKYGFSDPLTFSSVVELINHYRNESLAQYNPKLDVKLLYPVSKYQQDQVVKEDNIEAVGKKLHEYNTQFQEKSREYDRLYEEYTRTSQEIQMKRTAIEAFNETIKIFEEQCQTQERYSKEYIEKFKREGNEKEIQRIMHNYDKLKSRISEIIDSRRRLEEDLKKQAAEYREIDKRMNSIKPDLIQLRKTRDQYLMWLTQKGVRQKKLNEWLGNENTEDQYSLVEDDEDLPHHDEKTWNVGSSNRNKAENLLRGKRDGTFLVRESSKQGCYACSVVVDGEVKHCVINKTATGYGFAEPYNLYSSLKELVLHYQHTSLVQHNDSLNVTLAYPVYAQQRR
p110α/p85α, sequence (P42336 whole entry): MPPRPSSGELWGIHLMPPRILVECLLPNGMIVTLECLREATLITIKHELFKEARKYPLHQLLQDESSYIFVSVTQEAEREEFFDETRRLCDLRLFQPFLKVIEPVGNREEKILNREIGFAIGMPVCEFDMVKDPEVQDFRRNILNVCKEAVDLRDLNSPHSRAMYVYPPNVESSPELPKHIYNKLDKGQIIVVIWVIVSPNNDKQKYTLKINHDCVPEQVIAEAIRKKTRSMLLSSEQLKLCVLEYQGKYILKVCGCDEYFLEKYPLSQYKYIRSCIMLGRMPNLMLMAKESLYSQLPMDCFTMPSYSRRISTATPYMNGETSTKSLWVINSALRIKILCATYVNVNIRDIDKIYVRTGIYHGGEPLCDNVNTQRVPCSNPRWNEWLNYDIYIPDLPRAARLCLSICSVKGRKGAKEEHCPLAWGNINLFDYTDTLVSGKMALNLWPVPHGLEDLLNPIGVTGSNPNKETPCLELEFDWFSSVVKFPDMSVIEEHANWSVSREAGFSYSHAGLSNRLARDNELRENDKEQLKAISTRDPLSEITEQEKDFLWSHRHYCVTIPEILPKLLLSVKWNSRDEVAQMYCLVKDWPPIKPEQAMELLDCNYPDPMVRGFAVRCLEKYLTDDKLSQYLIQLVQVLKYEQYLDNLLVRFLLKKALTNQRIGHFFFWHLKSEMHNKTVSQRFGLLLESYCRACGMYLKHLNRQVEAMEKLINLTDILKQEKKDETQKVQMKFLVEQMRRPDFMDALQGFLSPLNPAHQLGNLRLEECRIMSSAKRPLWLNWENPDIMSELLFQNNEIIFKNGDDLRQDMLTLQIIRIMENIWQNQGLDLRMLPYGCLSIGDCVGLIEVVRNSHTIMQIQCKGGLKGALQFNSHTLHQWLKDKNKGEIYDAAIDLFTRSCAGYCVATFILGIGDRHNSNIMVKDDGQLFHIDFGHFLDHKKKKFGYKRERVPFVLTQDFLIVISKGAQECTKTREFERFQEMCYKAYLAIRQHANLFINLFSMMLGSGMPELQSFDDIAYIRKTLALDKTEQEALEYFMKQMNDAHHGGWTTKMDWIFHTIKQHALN
p110α/p85α, sequence (P27986 whole entry partner): as the sequence (P27986 whole entry partner) above
p110δ/p85α, sequence (O00329 whole entry): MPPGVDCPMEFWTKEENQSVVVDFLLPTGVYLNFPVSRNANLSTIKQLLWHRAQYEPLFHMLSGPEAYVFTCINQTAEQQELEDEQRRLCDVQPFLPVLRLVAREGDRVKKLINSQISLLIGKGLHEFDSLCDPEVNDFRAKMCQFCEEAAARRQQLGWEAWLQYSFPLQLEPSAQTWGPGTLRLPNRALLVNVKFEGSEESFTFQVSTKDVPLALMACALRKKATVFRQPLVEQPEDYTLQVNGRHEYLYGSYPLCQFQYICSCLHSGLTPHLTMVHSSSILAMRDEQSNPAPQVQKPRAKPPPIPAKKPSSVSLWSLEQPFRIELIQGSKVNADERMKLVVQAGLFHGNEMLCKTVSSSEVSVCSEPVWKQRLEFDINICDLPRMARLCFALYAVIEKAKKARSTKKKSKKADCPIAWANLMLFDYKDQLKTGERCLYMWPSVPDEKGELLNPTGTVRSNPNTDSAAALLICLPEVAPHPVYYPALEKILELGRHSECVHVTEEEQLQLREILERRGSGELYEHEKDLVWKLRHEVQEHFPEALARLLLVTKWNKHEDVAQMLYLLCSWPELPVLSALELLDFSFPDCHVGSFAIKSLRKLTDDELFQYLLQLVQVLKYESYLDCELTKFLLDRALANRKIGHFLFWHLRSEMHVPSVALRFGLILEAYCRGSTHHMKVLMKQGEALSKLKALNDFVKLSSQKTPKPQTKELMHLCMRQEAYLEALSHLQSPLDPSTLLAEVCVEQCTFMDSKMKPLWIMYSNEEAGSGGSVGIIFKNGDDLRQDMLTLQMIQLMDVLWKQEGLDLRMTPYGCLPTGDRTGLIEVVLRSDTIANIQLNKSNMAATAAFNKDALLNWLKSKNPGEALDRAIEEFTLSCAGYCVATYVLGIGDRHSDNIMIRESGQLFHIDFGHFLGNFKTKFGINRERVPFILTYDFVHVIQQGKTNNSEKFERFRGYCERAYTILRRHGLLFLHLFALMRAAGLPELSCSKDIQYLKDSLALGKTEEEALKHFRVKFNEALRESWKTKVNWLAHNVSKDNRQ
p110δ/p85α, sequence (P27986 whole entry partner): as the sequence (P27986 whole entry partner) above
Method for p110α/p85α: (§1) An exemplary system is PI 3-Kinase (human) HTRF™ Assay from Upstate. […] Briefly, the assay is a time resolved FRET assay that indirectly measures PIP3 product formed by the activity of a PI3-K. The kinase reaction is performed in a microtitre plate (e.g., a 384 well microtitre plate). The total reaction volume is approximately 20 ul per well. In the first step, each well receives 2 ul of test compound in 20% dimethylsulphoxide resulting in a 2% DMSO final concentration. Next, approximately 14.5 ul of a kinase/PIP2 mixture (diluted in 1× reaction buffer) is added per well for a final concentration of 0.25-0.3 ug/ml kinase and 10 μM PIP2. The plate is sealed and incubated for 15 minutes at room temperature. To start the reaction, 3.5 ul of ATP (diluted in 1× reaction buffer) is added per well for a final concentration of 10 μM ATP. The plate is sealed and incubated for 1 hour at room temperature. The reaction is stopped by adding 5 ul of Stop Solution per well and then 5 ul of Detection Mix is added per well. The plate is sealed, incubated for 1 hour at room temperature, and then read on an appropriate plate reader. Data is analyzed and IC50s are generated using GraphPad Prism 5. […] For PI3K α, β, δ, and γ, the nM concentration of inhibitor to reach IC50 is provided.
Method for p110β/p85α: as §1

For `CN1CCN(c2ccnc3ccc(-c4ccc5oc(N)nc5c4)cc23)CC1` [compound 21], the 50% inhibitory concentration (IC50) at p110α/p85α was under 1000 nM; on p110β/p85α, under 10000 nM; on p110δ/p85α it was under 10000 nM; at p110γ it was under 10000 nM.
As to `CN1CCN(c2ncnc3ccc(-c4ccc5oc(N)nc5c4)cc23)CC1` [compound 23], the IC50 on p110α/p85α was under 100 nM; at p110β/p85α, under 1000 nM; on p110δ/p85α it was under 10000 nM; at p110γ, under 100 nM.
Turning to `Nc1nc2cc(-c3ccc4ncnc(NC5CCOCC5)c4c3)ccc2o1` [compound 24], the IC50 on p110α/p85α is under 100 nM; at p110β/p85α, under 1000 nM; on p110δ/p85α, under 100 nM; on p110γ, under 100 nM.
As to `Nc1nc2cc(-c3ccc4ncc(-c5cccnc5)n4n3)ccc2o1` [compound 58], the IC50 on p110α/p85α, at p110β/p85α, at p110δ/p85α and on p110γ was under 100 nM each time.
Turning to `Nc1nc2cc(-c3ccc4ncc(-c5cn[nH]c5)n4n3)ccc2o1` [compound 59], the IC50 is under 100 nM on p110α/p85α, under 100 nM on p110β/p85α, under 1000 nM on p110δ/p85α and under 100 nM on p110γ.
Regarding `Nc1nc2cc(-c3cn4c(-c5ccncc5)cnc4cn3)ccc2o1` [compound 68], the half-maximal inhibitory concentration (IC50) on p110α/p85α is under 100 nM; at p110β/p85α, under 10000 nM; on p110δ/p85α, under 10000 nM; at p110γ, under 1000 nM.
In the case of `Nc1nc2cc(-c3cn4c(-c5cn[nH]c5)cnc4cn3)ccc2o1` [compound 69], the IC50 on p110α/p85α was under 1000 nM; on p110β/p85α, under 10000 nM; at p110δ/p85α, under 10000 nM; at p110γ, under 1000 nM.
Take `Nc1nc2cc(-c3ccc4nccc(-c5ccncc5)c4c3)ccc2s1` [compound 70]: the half-maximal inhibitory concentration (IC50) at p110α/p85α, at p110β/p85α, at p110δ/p85α and at p110γ was under 100 nM in each case.
For the compound `Nc1nc2cc(-c3ccc4ncc(-c5ccncc5)nc4c3)ccc2o1` [compound 71], the IC50 on p110α/p85α is under 100 nM; on p110β/p85α it was under 10000 nM; at p110δ/p85α it was under 1000 nM; on p110γ, under 100 nM.
As for `Nc1nc2cc(-c3ccc4ncc(-c5cn[nH]c5)nc4c3)ccc2o1` [compound 78], the concentration for half-maximal inhibition (IC50) was under 100 nM on p110α/p85α, under 1000 nM on p110β/p85α, under 1000 nM at p110δ/p85α and under 100 nM on p110γ.
Turning to `CN1CCC(Nc2cnc3ccc(-c4ccc5oc(N)nc5c4)cc3n2)CC1` [compound 81], the half-maximal inhibitory concentration (IC50) at p110α/p85α is under 100 nM; on p110β/p85α it was under 1000 nM; at p110δ/p85α, under 100 nM; at p110γ, under 1000 nM.
Take `CC(=O)N1CCC(Nc2cnc3ccc(-c4ccc5oc(N)nc5c4)cc3n2)CC1` [compound 82]: the IC50 on p110α/p85α is under 100 nM; at p110β/p85α it was under 10000 nM; on p110δ/p85α, under 100 nM; at p110γ, under 100 nM.
For `Nc1nc2cc(-c3ccc4ncc(C(=O)NC5CCOCC5)n4c3)ccc2o1` [compound 83], the IC50 was under 100 nM at p110α/p85α, under 10000 nM at p110β/p85α, under 100 nM on p110δ/p85α and under 100 nM on p110γ.
As for `CC(=O)N1CCN(c2cnc3ccc(-c4ccc5oc(N)nc5c4)cc3n2)CC1` [compound 85], the half-maximal inhibitory concentration (IC50) at p110α/p85α, at p110β/p85α, at p110δ/p85α and on p110γ was under 100 nM in each case.
Turning to `CS(=O)(=O)N1CCN(c2cnc3ccc(-c4ccc5oc(N)nc5c4)cc3n2)CC1` [compound 86], the IC50 at p110α/p85α is under 100 nM; on p110β/p85α, under 1000 nM; on p110δ/p85α, under 1000 nM; at p110γ, under 100 nM.
With `CS(=O)(=O)N1CCC(Nc2ncnc3ccc(-c4ccc5oc(N)nc5c4)cc23)CC1` [compound 87], the IC50 at p110α/p85α is under 100 nM; at p110β/p85α it was under 1000 nM; at p110δ/p85α, under 100 nM; on p110γ it was under 100 nM.
Turning to `Nc1nc2cc(-c3ccc4ncnc(NC5CCN(C(=O)C6CC6)CC5)c4c3)ccc2o1` [compound 89], the concentration for half-maximal inhibition (IC50) on p110α/p85α was under 100 nM; on p110β/p85α, under 10000 nM; on p110δ/p85α it was under 100 nM; at p110γ, under 100 nM.
